According to ChEMBL document CHEMBL1212714, “Dentigerumycin: a bacterial mediator of an ant-fungus symbiosis” (2009):
In brackets after ≈: the same amount, converted by molar mass. Activity calls are given as the source filed them. The rule behind the calls is not given here.

Assays:
[1] = tested on: ant fungal cultivar CC011120-4 (mutualistic fungus); experiment: Antifungal activity against ant fungal cultivar CC011120-4 assessed as growth inhibition at 5 mg/ml by plate antifungal assay
[2] = tested on: Candida albicans; experiment: Antifungal activity against Candida albicans ATCC 200955 at 37degC after 48 hrs by liquid culture assay; assay type: functional; conditions: ATCC 200955, 48 h
[3] = Antifungal activity against Escovopsis at 37degC after 48 hrs by liquid culture assay; assay type: functional
[4] = tested on: Candida albicans; experiment: Antifungal activity against wild type Candida albicans at 37degC after 48 hrs by liquid culture assay; assay type: functional
[5] = tested on: Candida albicans; experiment: Antifungal activity against Candida albicans ATCC 10231 at 37degC after 48 hrs by liquid culture assay; assay type: functional; conditions: ATCC 10231, 48 h
[6] = tested on: Escovopsis; experiment: Antifungal activity against Escovopsis CC011120-4 assessed as growth inhibition at 5 mg/ml by plate antifungal assay; assay type: functional

In the case of `CCC[C@H]1CC[C@](O)([C@](C)(O)C(=O)N[C@@H]2C(=O)N3NCCC[C@@H]3C(=O)N(O)[C@@H](C)C(=O)N3NCCC[C@@H]3C(=O)N3NC[C@@H](O)C[C@H]3C(=O)N[C@@H](C)C(=O)O[C@H]2C(C)C)O[C@@H]1CC` [DENTIGERUMYCIN], the “growth inhibition (GI)” value [1] is reported as “inactive”, the MIC [2] is reported as 1.1 µM (≈ 0.97 µg/mL) and the MIC [3] is reported as 2.8 µM (≈ 2.47 µg/mL). For the same molecule, the MIC [4] was 1.1 µM (≈ 0.97 µg/mL), the MIC [5] was 1.1 µM (≈ 0.97 µg/mL) and the “growth inhibition (GI)” value [6] was “Active”.
